According to the NIST ThermoML archive (doi:10.1016/j.jct.2005.05.008):
± gives the expanded uncertainty stated by the source.

Assay: an = ratio of the nth substance listed, in mol/kg
Settings: 101 kPa, Liquid, Vibrating tube method

## C[N+](C)(C)C.[O-][Cl+3]([O-])([O-])[O-] [tetramethylammonium perchlorate] + CN(C)C=O
283.15 K, a1 = 0.01523
  mass density: 958.937 ± 0.27 kg/m3
283.15 K, a1 = 0.01902
  mass density: 959.151 ± 0.27 kg/m3
283.15 K, a1 = 0.02912
  mass density: 959.718 ± 0.27 kg/m3
283.15 K, a1 = 0.03309
  mass density: 959.941 ± 0.27 kg/m3
283.15 K, a1 = 0.03853
  mass density: 960.244 ± 0.27 kg/m3
283.15 K, a1 = 0.04774
  mass density: 960.757 ± 0.27 kg/m3
283.15 K, a1 = 0.05313
  mass density: 961.055 ± 0.27 kg/m3
283.15 K, a1 = 0.0674
  mass density: 961.841 ± 0.27 kg/m3
283.15 K, a1 = 0.08195
  mass density: 962.642 ± 0.27 kg/m3
283.15 K, a1 = 0.09648
  mass density: 963.443 ± 0.27 kg/m3
293.15 K, a1 = 0.01523
  mass density: 949.438 ± 0.27 kg/m3
293.15 K, a1 = 0.01902
  mass density: 949.656 ± 0.27 kg/m3
293.15 K, a1 = 0.02912
  mass density: 950.233 ± 0.27 kg/m3
293.15 K, a1 = 0.03309
  mass density: 950.46 ± 0.27 kg/m3
293.15 K, a1 = 0.03853
  mass density: 950.768 ± 0.27 kg/m3
293.15 K, a1 = 0.04774
  mass density: 951.288 ± 0.27 kg/m3
293.15 K, a1 = 0.05313
  mass density: 951.59 ± 0.27 kg/m3
293.15 K, a1 = 0.0674
  mass density: 952.388 ± 0.27 kg/m3
293.15 K, a1 = 0.08195
  mass density: 953.2 ± 0.27 kg/m3
293.15 K, a1 = 0.09648
  mass density: 954.007 ± 0.27 kg/m3
298.15 K, a1 = 0.01523
  mass density: 944.682 ± 0.27 kg/m3
298.15 K, a1 = 0.01902
  mass density: 944.901 ± 0.27 kg/m3
298.15 K, a1 = 0.02912
  mass density: 945.481 ± 0.27 kg/m3
298.15 K, a1 = 0.03309
  mass density: 945.71 ± 0.27 kg/m3
298.15 K, a1 = 0.03853
  mass density: 946.019 ± 0.27 kg/m3
298.15 K, a1 = 0.04774
  mass density: 946.545 ± 0.27 kg/m3
298.15 K, a1 = 0.05313
  mass density: 946.848 ± 0.27 kg/m3
298.15 K, a1 = 0.0674
  mass density: 947.652 ± 0.27 kg/m3
298.15 K, a1 = 0.08195
  mass density: 948.469 ± 0.27 kg/m3
298.15 K, a1 = 0.09648
  mass density: 949.284 ± 0.27 kg/m3
303.15 K, a1 = 0.01523
  mass density: 939.914 ± 0.27 kg/m3
303.15 K, a1 = 0.01902
  mass density: 940.135 ± 0.27 kg/m3
303.15 K, a1 = 0.02912
  mass density: 940.72 ± 0.27 kg/m3
303.15 K, a1 = 0.03309
  mass density: 940.951 ± 0.27 kg/m3
303.15 K, a1 = 0.03853
  mass density: 941.262 ± 0.27 kg/m3
303.15 K, a1 = 0.04774
  mass density: 941.792 ± 0.27 kg/m3
303.15 K, a1 = 0.05313
  mass density: 942.097 ± 0.27 kg/m3
303.15 K, a1 = 0.0674
  mass density: 942.907 ± 0.27 kg/m3
303.15 K, a1 = 0.08195
  mass density: 943.731 ± 0.27 kg/m3
303.15 K, a1 = 0.09648
  mass density: 944.551 ± 0.27 kg/m3
313.15 K, a1 = 0.01523
  mass density: 930.347 ± 0.26 kg/m3
313.15 K, a1 = 0.01902
  mass density: 930.572 ± 0.26 kg/m3
313.15 K, a1 = 0.02912
  mass density: 931.168 ± 0.26 kg/m3
313.15 K, a1 = 0.03309
  mass density: 931.402 ± 0.26 kg/m3
313.15 K, a1 = 0.03853
  mass density: 931.719 ± 0.26 kg/m3
313.15 K, a1 = 0.04774
  mass density: 932.257 ± 0.26 kg/m3
313.15 K, a1 = 0.05313
  mass density: 932.568 ± 0.26 kg/m3
313.15 K, a1 = 0.0674
  mass density: 933.392 ± 0.26 kg/m3
313.15 K, a1 = 0.08195
  mass density: 934.229 ± 0.26 kg/m3
313.15 K, a1 = 0.09648
  mass density: 935.06 ± 0.27 kg/m3
323.15 K, a1 = 0.01523
  mass density: 920.732 ± 0.26 kg/m3
323.15 K, a1 = 0.01902
  mass density: 920.962 ± 0.26 kg/m3
323.15 K, a1 = 0.02912
  mass density: 921.569 ± 0.26 kg/m3
323.15 K, a1 = 0.03309
  mass density: 921.807 ± 0.26 kg/m3
323.15 K, a1 = 0.03853
  mass density: 922.13 ± 0.26 kg/m3
323.15 K, a1 = 0.04774
  mass density: 922.676 ± 0.26 kg/m3
323.15 K, a1 = 0.05313
  mass density: 922.995 ± 0.26 kg/m3
323.15 K, a1 = 0.0674
  mass density: 923.831 ± 0.26 kg/m3
323.15 K, a1 = 0.08195
  mass density: 924.679 ± 0.26 kg/m3
323.15 K, a1 = 0.09648
  mass density: 925.524 ± 0.26 kg/m3
333.15 K, a1 = 0.01523
  mass density: 911.066 ± 0.26 kg/m3
333.15 K, a1 = 0.01902
  mass density: 911.299 ± 0.26 kg/m3
333.15 K, a1 = 0.02912
  mass density: 911.916 ± 0.26 kg/m3
333.15 K, a1 = 0.03309
  mass density: 912.157 ± 0.26 kg/m3
333.15 K, a1 = 0.03853
  mass density: 912.486 ± 0.26 kg/m3
333.15 K, a1 = 0.04774
  mass density: 913.042 ± 0.26 kg/m3
333.15 K, a1 = 0.05313
  mass density: 913.365 ± 0.26 kg/m3
333.15 K, a1 = 0.0674
  mass density: 914.216 ± 0.26 kg/m3
333.15 K, a1 = 0.08195
  mass density: 915.082 ± 0.26 kg/m3
333.15 K, a1 = 0.09648
  mass density: 915.939 ± 0.26 kg/m3
